Data reported in ChEMBL document CHEMBL3046720, “Molecular properties of fatty acids related to PPAR binding and metabolic diseases” (Med Chem Res, 2013).

Tests used:
[1] = molecular target: T1, Peroxisome proliferator-activated receptor delta (Homo sapiens, UniProt Q03181); test: Displacement of [3H]GW2433 from Homo sapiens (human) PPARdelta receptor by scintillation proximity assay
T1 sequence (Q03181 whole entry): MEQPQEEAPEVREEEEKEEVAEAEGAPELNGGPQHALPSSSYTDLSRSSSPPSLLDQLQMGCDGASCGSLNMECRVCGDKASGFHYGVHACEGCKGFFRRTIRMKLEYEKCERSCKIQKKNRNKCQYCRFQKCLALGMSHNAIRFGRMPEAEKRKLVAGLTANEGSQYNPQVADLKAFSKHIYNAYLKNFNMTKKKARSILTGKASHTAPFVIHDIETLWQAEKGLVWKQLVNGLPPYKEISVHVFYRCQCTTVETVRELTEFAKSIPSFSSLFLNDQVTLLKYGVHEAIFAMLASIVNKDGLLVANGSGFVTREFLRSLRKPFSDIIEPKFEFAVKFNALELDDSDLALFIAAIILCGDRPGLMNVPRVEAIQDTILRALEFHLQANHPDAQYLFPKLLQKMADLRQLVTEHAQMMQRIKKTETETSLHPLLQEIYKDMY

[2] = molecular target: T2, Peroxisome proliferator-activated receptor alpha (Homo sapiens, UniProt Q07869); test: Displacement of [3H]GW2331 from Homo sapiens (human) PPARalpha receptor by scintillation proximity assay
T2 sequence (Q07869 whole entry): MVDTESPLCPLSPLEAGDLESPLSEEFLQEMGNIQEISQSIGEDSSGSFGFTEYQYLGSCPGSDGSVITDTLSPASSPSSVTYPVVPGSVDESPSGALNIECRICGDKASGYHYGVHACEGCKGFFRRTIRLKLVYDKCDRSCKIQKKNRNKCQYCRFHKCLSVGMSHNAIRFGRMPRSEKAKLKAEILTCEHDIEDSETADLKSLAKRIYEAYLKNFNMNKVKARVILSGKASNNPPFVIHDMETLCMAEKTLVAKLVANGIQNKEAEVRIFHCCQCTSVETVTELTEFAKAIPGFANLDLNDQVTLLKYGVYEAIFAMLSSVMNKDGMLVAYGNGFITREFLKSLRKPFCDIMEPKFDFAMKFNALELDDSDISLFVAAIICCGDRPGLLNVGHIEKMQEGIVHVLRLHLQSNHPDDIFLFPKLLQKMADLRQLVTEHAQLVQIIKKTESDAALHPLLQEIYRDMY

[3] = molecular target: T3, Peroxisome proliferator-activated receptor gamma (Homo sapiens, UniProt P37231); test: Displacement of [3H]BRL49653 from Homo sapiens (human) PPARgamma receptor by scintillation proximity assay
T3 sequence (P37231 whole entry): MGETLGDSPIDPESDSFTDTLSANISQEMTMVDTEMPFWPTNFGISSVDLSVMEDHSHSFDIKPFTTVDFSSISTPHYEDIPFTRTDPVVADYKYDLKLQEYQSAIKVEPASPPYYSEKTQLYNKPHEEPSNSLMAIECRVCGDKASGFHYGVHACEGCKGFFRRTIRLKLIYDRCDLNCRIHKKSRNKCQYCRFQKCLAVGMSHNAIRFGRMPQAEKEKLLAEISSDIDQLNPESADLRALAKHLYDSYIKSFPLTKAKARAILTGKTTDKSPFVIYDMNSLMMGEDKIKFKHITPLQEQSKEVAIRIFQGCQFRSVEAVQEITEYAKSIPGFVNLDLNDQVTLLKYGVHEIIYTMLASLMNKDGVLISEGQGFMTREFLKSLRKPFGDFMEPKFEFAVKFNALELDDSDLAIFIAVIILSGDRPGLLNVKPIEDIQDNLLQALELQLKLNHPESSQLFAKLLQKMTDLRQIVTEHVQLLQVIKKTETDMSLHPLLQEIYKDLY

With `CCCCCCCC/C=C\CCCCCCCCCCCC(=O)O` [ERUCIC ACID] as the molecule, how does the IC50 [1] read?
Its IC50 is over 30 µM.

What about the IC50 [2] of the same molecule?
Its IC50 is over 30 µM.

For `CCCCC/C=C\C/C=C\CCCCCCCC(=O)O` [LINOLEIC ACID], which IC50 [1] is on record?
Its IC50 is 10 µM.

What about the IC50 [3] of the same molecule?
Its IC50 is 6.2 µM.

`CC/C=C\C/C=C\C/C=C\CCCCCCCC(=O)O` [LINOLENIC ACID] was tested. Which IC50 [1] did it give?
Its IC50 is 16 µM.

For `CCCCCCCC/C=C\CCCCCCCC(=O)O` [OLEIC ACID], which IC50 [1] is on record?
The IC50 was 5.3 µM.

What about the IC50 [3] of the same molecule?
Its IC50 is 4.1 µM.

With `CCCCCCCCCCCCCC(=O)O` [MYRISTIC ACID] as the molecule, how does the IC50 [3] read?
The IC50 was 21 µM.

What about the IC50 [2] of the same molecule?
The IC50 was 5.4 µM.

For `CCCCC/C=C\C/C=C\C/C=C\CCCCCCC(=O)O` [DIHOMO-GAMMA-LINOLENIC ACID], which IC50 [1] is on record?
Its IC50 is 4.3 µM.

And the IC50 [3]?
The IC50 was 2.4 µM.

`CCCCCC/C=C\CCCCCCCC(=O)O` [PALMITOLEIC ACID] was tested. Which IC50 [1] did it give?
Its IC50 is 9.6 µM.

What about the IC50 [3] of the same molecule?
Its IC50 is 6.4 µM.

For `CCCCC/C=C\C/C=C\C/C=C\CCCCC(=O)O` [GAMOLENIC ACID], which IC50 [1] is on record?
Its IC50 is 0.75 µM.

What does the source list for `CCCCCCCCCCCC(=O)O` [DODECANOATE]?
IC50 [1]: > 30 µM; IC50 [2]: > 30 µM

Which IC50 [1] does the source give for `CCCCCCCCCC(=O)O` [DECANOIC ACID] here?
The IC50 was over 30 µM.

What about the IC50 [3] of the same molecule?
Its IC50 is 30 µM.

What about the IC50 [2] of the same molecule?
The IC50 was over 30 µM.

Which results are given for `CCCCCCCCCCCCCCCCCCCC(=O)O` [ARACHIDIC ACID]?
IC50 [1]: > 30 µM; IC50 [2]: > 30 µM

With `CC/C=C\C/C=C\C/C=C\C/C=C\C/C=C\CCCC(=O)O` [ICOSAPENT] as the molecule, how does the IC50 [1] read?
The IC50 was 4 µM.

And the IC50 [3]?
Its IC50 is 1.6 µM.

How did the IC50 [2] turn out when `CCCCCCCCCCCCCCCC(=O)O` [PALMITIC ACID] was run?
Its IC50 is 1.5 µM.

With `CCCCCCCCCCCCCCCCCC(=O)O` [STEARIC ACID] as the molecule, how does the IC50 [2] read?
Its IC50 is 1.1 µM.

Which IC50 [1] does the source give for `CCCCCCCCCCCCCCCCCCCCCC(=O)O` [BEHENIC ACID] here?
The IC50 was over 30 µM.

What about the IC50 [2] of the same molecule?
The IC50 was over 30 µM.

How did the IC50 [1] turn out when `CCCCC/C=C\C/C=C\C/C=C\C/C=C\CCCC(=O)O` [ARACHIDONIC ACID] was run?
Its IC50 is 3.1 µM.

What about the IC50 [3] of the same molecule?
Its IC50 is 1.6 µM.
